Laboratory results as given in patent US7417156B2, “Orally active, antimalarial, anticancer, artemisinin-derived trioxane dimers” (Johns Hopkins University, priority 2002, dated 2008).

How the values were obtained:
[1] = tested on: NCI-H226; assay: NCI 60 cell line panel screen (SRB); assay type: cell-based, human
[2] = tested on: KM12; assay: NCI 60 cell line panel screen (SRB); assay type: cell-based, human
[3] = tested on: HOP-62; assay: NCI 60 cell line panel screen (SRB); assay type: cell-based, human
[4] = tested on: SK-MEL-5; assay: NCI 60 cell line panel screen (SRB); assay type: cell-based, human
[5] = tested on: P. berghei; details: P. berghei-infected mice; cited from earlier work
[6] = tested on: A498; assay: NCI 60 cell line panel screen (SRB); assay type: cell-based, human
[7] = tested on: RXF 393; assay: NCI 60 cell line panel screen (SRB); assay type: cell-based, human
[8] = tested on: P388 leukemia; details: NCI Report on NSC 369397; cited from earlier work
[9] = tested on: UACC-62; assay: NCI 60 cell line panel screen (SRB); assay type: cell-based, human
[10] = tested on: SR; assay: NCI 60 cell line panel screen (SRB); assay type: cell-based, human
[11] = tested on: U251; assay: NCI 60 cell line panel screen (SRB); assay type: cell-based, human
[12] = tested on: COLO 205; assay: NCI 60 cell line panel screen (SRB); assay type: cell-based, human
[13] = tested on: SN12C; assay: NCI 60 cell line panel screen (SRB); assay type: cell-based, human
[14] = tested on: 786-0; assay: NCI 60 cell line panel screen (SRB); assay type: cell-based, human
[15] = tested on: SW-620; assay: NCI 60 cell line panel screen (SRB); assay type: cell-based, human
[16] = tested on: HCC-2998; assay: NCI 60 cell line panel screen (SRB); assay type: cell-based, human
[17] = tested on: MDA-N; assay: NCI 60 cell line panel screen (SRB); assay type: cell-based, human
[18] = tested on: EKVX; assay: NCI 60 cell line panel screen (SRB); assay type: cell-based, human
[19] = tested on: T-47D; assay: NCI 60 cell line panel screen (SRB); assay type: cell-based, human; details: T-47D (Breast Cancer)
[20] = tested on: HL-60(TB); assay: NCI 60 cell line panel screen (SRB); assay type: cell-based, human

Compound `C[C@@H]1CC[C@H]2[C@@H](C)C(=O)O[C@@H]3O[C@]4(C)CC[C@@H]1[C@]32OO4` [Artemisinin] has a Log10LC50 ([1]; NCI-H226 (Non-Small Cell Lung Cancer), LC50: PG=−50) of over −4.00 log10M, a Log10TGI50 ([1]; NCI-H226 (Non-Small Cell Lung Cancer), TGI: PG=0) of over −4.00 log10M and a Log10GI50 ([1]; Non-Small Cell Lung Cancer, NCI-H226) of over −4.00. For the same compound, the Log10GI50 ([2]; Colon Cancer, KM12) was over −4.00, the Log10LC50 ([2]; KM12 (Colon Cancer), LC50: PG=−50) was over −4.00 log10M and the Log10TGI50 ([2]; KM12 (Colon Cancer), TGI: PG=0) was over −4.00 log10M. It also gave a Log10LC50 ([3]; HOP-62 (Non-Small Cell Lung Cancer), LC50: PG=−50) of over −4.00 log10M, a Log10TGI50 ([3]; HOP-62 (Non-Small Cell Lung Cancer), TGI: PG=0) of over −4.00 log10M and a Log10GI50 ([3]; Non-Small Cell Lung Cancer, HOP-62) of over −4.00. For the same compound, the Log10GI50 ([4]; Melanoma, SK-MEL-5) was over −4.10, the Log10TGI50 ([4]; SK-MEL-5 (Melanoma), TGI: PG=0) was over −4.00 log10M and the SD90 [5] was 6.20 mg/kg. The Log10LC50 ([6]; A498 (Renal Cancer), LC50: PG=−50) was over −4.00 log10M, the Log10TGI50 ([6]; A498 (Renal Cancer), TGI: PG=0) was over −4.00 log10M and the Log10GI50 ([6]; Renal Cancer, A498) was over −4.00. It also gave a Log10LC50 ([7]; RXF 393 (Renal Cancer), LC50: PG=−50) of over −4.00 log10M, a Log10TGI50 ([7]; RXF 393 (Renal Cancer), TGI: PG=0) of over −4.00 log10M and a Log10GI50 ([7]; Renal Cancer, RXF 393) of −4.08. For the same compound, the activity in words [8] was “inactive”, the Log10GI50 ([9]; Melanoma, UACC-62) was over −4.00 and the Log10LC50 ([9]; UACC-62 (Melanoma), LC50: PG=−50) was over −4.00 log10M. It also gave a Log10TGI50 ([9]; UACC-62 (Melanoma), TGI: PG=0) of over −4.00 log10M, a Log10GI50 ([10]; Leukemia, SR) of over −4.00 and a Log10LC50 ([10]; SR (Leukemia), LC50: PG=−50) of over −4.00 log10M. It also gave a Log10TGI50 ([10]; SR (Leukemia), TGI: PG=0) of over −4.00 log10M, a Log10GI50 ([11]; CNS Cancer, U251) of over −4.00 and a Log10LC50 ([11]; U251 (CNS Cancer), LC50: PG=−50) of over −4.00 log10M. The Log10TGI50 ([11]; U251 (CNS Cancer), TGI: PG=0) was over −4.00 log10M, the Log10LC50 ([12]; COLO 205 (Colon Cancer), LC50: PG=−50) was over −4.00 log10M and the Log10TGI50 ([12]; COLO 205 (Colon Cancer), TGI: PG=0) was over −4.00 log10M. It also gave a Log10GI50 ([12]; Colon Cancer, COLO 205) of over −4.00, a Log10GI50 ([13]; Renal Cancer, SN12C) of −4.21 and a Log10LC50 ([13]; SN12C (Renal Cancer), LC50: PG=−50) of over −4.00 log10M. For the same compound, the Log10TGI50 ([13]; SN12C (Renal Cancer), TGI: PG=0) was over −4.00 log10M, the Log10LC50 ([14]; 786-0 (Renal Cancer), LC50: PG=−50) was over −4.00 log10M and the Log10TGI50 ([14]; 786-0 (Renal Cancer), TGI: PG=0) was over −4.00 log10M. For the same compound, the Log10GI50 ([14]; Renal Cancer, 786-0) was over −4.00, the Log10GI50 ([15]; Colon Cancer, SW-620) was over −4.00 and the Log10LC50 ([15]; SW-620 (Colon Cancer), LC50: PG=−50) was over −4.00 log10M. It also gave a Log10TGI50 ([15]; SW-620 (Colon Cancer), TGI: PG=0) of over −4.00 log10M, a Log10GI50 ([16]; Colon Cancer, HCC-2998) of over −4.00 and a Log10LC50 ([16]; HCC-2998 (Colon Cancer), LC50: PG=−50) of over −4.00 log10M. It also gave a Log10TGI50 ([16]; HCC-2998 (Colon Cancer), TGI: PG=0) of over −4.00 log10M, a Log10GI50 ([17]; Breast Cancer, MDA-N) of over −4.00 and a Log10LC50 ([17]; MDA-N (Breast Cancer), LC50: PG=−50) of over −4.00 log10M. It also gave a Log10TGI50 ([17]; MDA-N (Breast Cancer), TGI: PG=0) of over −4.00 log10M, a Log10LC50 ([18]; EKVX (Non-Small Cell Lung Cancer), LC50: PG=−50) of over −4.00 log10M and a Log10TGI50 ([18]; EKVX (Non-Small Cell Lung Cancer), TGI: PG=0) of over −4.00 log10M. The Log10GI50 ([18]; Non-Small Cell Lung Cancer, EKVX) was over −4.00, the Log10LC50 ([19]; LC50: PG=−50) was over −4.00 log10M and the Log10TGI50 ([19]; TGI: PG=0) was over −4.00 log10M. The Log10LC50 ([20]; HL-60(TB) (Leukemia), LC50: PG=−50) was over −4.00 log10M, the Log10TGI50 ([20]; HL-60(TB) (Leukemia), TGI: PG=0) was over −4.00 log10M and the Log10GI50 ([20]; Leukemia, HL-60(TB)) was −4.26.
